Tests used:
[1] = molecular target: human activated kallikrein enzyme (Homo sapiens, UniProt P03952); test: Plasma kallikrein inhibition, fluorogenic PFR-AMC substrate, 500 pM activated kallikrein format; type: biochemical; conditions: 500 pM activated kallikrein, 300 uM PFR-AMC, 30 min preincubation, 10 min reaction; read-out: Primary Dose Response Assay: Average EC50
Procedure, shortened: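 Fluorogenic readout (ex 380 / em 460 nm) after 10 min room-temperature reaction with 300 uM Pro-Phe-Arg-AMC substrate, following 30 min preincubation of inhibitors with 500 pM enzyme. Buffer: Tris pH 7.5, EDTA, NaCl, PEG-400, Triton X-100. Values given as EC50 ranges.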

plasma kallikrein = molecular target: T1, plasma kallikrein (Homo sapiens, UniProt P03952); test: Neat human plasma assay, FXIIa contact pathway-activated, PFR-AMC substrate; type: biochemical; conditions: citrated human plasma 78% final, 10 nM human FXIIa, 100 μM PFR-AMC; read-out: Human Plasma Assay: IC90
T1 construct: from tissue
T1 sequence (P03952 391-638 limits assumed): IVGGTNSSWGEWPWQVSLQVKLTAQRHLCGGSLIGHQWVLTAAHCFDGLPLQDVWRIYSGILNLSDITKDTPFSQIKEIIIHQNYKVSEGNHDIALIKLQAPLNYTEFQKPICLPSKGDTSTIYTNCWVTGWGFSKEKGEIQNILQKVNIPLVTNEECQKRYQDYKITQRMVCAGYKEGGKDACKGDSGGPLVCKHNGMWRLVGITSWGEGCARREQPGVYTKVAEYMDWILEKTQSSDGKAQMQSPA
T1 sequence (P03952 20-390 partner limits assumed): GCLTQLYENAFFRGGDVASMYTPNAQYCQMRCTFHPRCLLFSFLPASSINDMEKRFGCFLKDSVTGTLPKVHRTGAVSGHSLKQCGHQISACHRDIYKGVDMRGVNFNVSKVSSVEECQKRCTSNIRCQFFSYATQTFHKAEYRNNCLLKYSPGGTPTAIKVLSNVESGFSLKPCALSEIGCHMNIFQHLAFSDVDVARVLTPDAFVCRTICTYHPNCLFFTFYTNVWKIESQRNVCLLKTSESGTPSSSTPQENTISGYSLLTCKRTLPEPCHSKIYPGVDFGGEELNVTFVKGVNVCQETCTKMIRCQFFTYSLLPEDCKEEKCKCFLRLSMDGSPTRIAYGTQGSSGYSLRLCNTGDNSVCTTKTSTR
Procedure, shortened: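 Compound inhibition of plasma kallikrein measured as PFR-AMC (100 μM) cleavage rate over 5 min at room temperature in 78% citrated human plasma activated with 10 nM FXIIa (Tris pH 7.5 buffer). IC50/IC90 from 4-parameter fit of rate versus inhibitor concentration.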

Chain of human activated kallikrein enzyme (P03952 391-638 limits assumed): as the sequence (P03952 391-638 limits assumed) above
Chain of human activated kallikrein enzyme (P03952 20-390 partner limits assumed): as the sequence (P03952 20-390 partner limits assumed) above

Structure (SMILES) | EC50 [1] [nM] | IC90 (plasma kallikrein) [nM]
Cc1ccnc([C@H]2C[C@@H]2C(=O)Nc2cc(NC(C)c3cn4cc(C5CC5)cc(N5CCN(C)C5=O)c4n3)nc(C)n2)n1 (stereo partly drawn) [Example 364, (1S,2S)-N-(6-((1-(6-cyclopropyl-8-(3-methyl-2-oxoimidazolidin-1-yl)imidazo[1,2-a]pyridin-2-yl)ethyl)amino)-2-methylpyrimidin-4-yl)-2-(4-methylpyrimidin-2-yl)cyclopropane-1-carboxamide] | < 1 | 400 to 1500
Cc1cc(C)nc([C@H]2C[C@@H]2C(=O)Nc2cc(NCc3cn4cc(C5CC5)cc(N5CC(=O)N(C)C5=O)c4n3)ncn2)n1 (racemic) [Example 497, rac-(1S*,2S*)-N-(6-(((6-cyclopropyl-8-(3-methyl-2,4-dioxoimidazolidin-1-yl)imidazo[1,2-a]pyridin-2-yl)methyl)amino)pyrimidin-4-yl)-2-(4,6-dimethylpyrimidin-2-yl)cyclopropane-1-carboxamide] | < 1 | 400 to 1500
Cc1ccnc([C@H]2C[C@@H]2C(=O)Nc2cc(N[C@H](C)c3cn4cc(C5CC5)cc(N5C[C@@H]6C[C@@H]6C5=O)c4n3)ncn2)n1 (racemic) [Example 443, (1S,2S)—N-(6-(((R)-1-(6-cyclopropyl-8-((1R*,5S*)-2-oxo-3-azabicyclo[3.1.0]hexan-3-yl)imidazo[1,2-a]pyridin-2-yl)ethyl)amino)pyrimidin-4-yl)-2-(4-methylpyrimidin-2-yl)cyclopropane-1-carboxamide] | < 1 | < 400
O=C(Nc1cc(NCc2cn3cc(C4CC4)cc(C(=O)N4CCNCC4)c3n2)ncn1)[C@H]1C[C@@H]1c1cccc(Cl)c1 [Example 304, (1S,2S)-2-(3-chlorophenyl)-N-(6-(((6-cyclopropyl-8-(piperazine-1-carbonyl)imidazo[1,2-a]pyridin-2-yl)methyl)amino)pyrimidin-4-yl)cyclopropane-1-carboxamide] | < 1 | < 400
Cc1ccnc([C@H]2C[C@@H]2C(=O)Nc2nc(Cl)nc(NCc3cn4cc(C5CC5)cc(N5CC(=O)N(C)C5=O)c4n3)n2)n1 (racemic) [Example 622, rac-(1S*,2S*)—N-(4-chloro-6-(((6-cyclopropyl-8-(3-methyl-2,4-dioxoimidazolidin-1-yl)imidazo[1,2-a]pyridin-2-yl)methyl)amino)-1,3,5-triazin-2-yl)-2-(4-methylpyrimidin-2-yl)cyclopropane-1-carboxamide] | < 1 | 400 to 1500
Cc1ccnc([C@H]2C[C@@H]2C(=O)Nc2cc(NCc3cn4cc(C5CC5)cc(S(C)(=O)=O)c4n3)ncn2)n1 (racemic) [Example 322, rac-(1S*,2S*)—N-(6-(((6-cyclopropyl-8-(methylsulfonyl)imidazo[1,2-a]pyridin-2-yl)methyl)amino)pyrimidin-4-yl)-2-(4-methylpyrimidin-2-yl)cyclopropane-1-carboxamide] | < 1 | 400 to 1500
CN1C(=O)CN(c2cc(C3CC3)cn3cc(CN(C)c4cnnc(NC(=O)[C@H]5C[C@@H]5c5cccc(Cl)c5)c4)nc23)C1=O [Example I-641, (1S,2S)-2-(3-chlorophenyl)-N-(5-(((6-cyclopropyl-8-(3-methyl-2,4-dioxoimidazolidin-1-yl)imidazo[1,2-a]pyridin-2-yl)methyl)(methyl)amino)pyridazin-3-yl)cyclopropane-1-carboxamide] | < 1 | 400 to 1500
Cc1ccnc([C@H]2C[C@@H]2C(=O)Nc2cc(NCc3cn4cc(C5CC5)cc(N5CC(=O)N(C)C5=O)c4n3)nc(C(F)F)n2)n1 (racemic) [Example 411, rac-(1S*,2S*)-N-(6-(((6-cyclopropyl-8-(3-methyl-2,4-dioxoimidazolidin-1-yl)imidazo[1,2-a]pyridin-2-yl)methyl)amino)-2-(difluoromethyl)pyrimidin-4-yl)-2-(4-methylpyrimidin-2-yl)cyclopropane-1-carboxamide] | < 1 | < 400
Cc1ccnc([C@H]2C[C@@H]2C(=O)Nc2cc(OCc3cn4cc(C5CC5)cc(N5CC(=O)N(CC(C)(C)O)C5=O)c4n3)nc(C)n2)n1 [Example 562, (1S,2S)—N-(6-((6-cyclopropyl-8-(3-(2-hydroxy-2-methylpropyl)-2,4-dioxoimidazolidin-1-yl)imidazo[1,2-a]pyridin-2-yl)methoxy)-2-methylpyrimidin-4-yl)-2-(4-methylpyrimidin-2-yl)cyclopropane-1-carboxamide] | < 1 | 400 to 1500
O=C(Nc1cc(N2C[C@@H](O)C[C@@H]2c2cn3cc(C4CC4)ccc3n2)ccn1)[C@H]1C[C@@H]1c1cccc(Cl)c1 [Example 282, (1S,2S)-2-(3-chlorophenyl)-N-(4-((2R,4S)-2-(6-cyclopropylimidazo[1,2-a]pyridin-2-yl)-4-hydroxypyrrolidin-1-yl)pyridin-2-yl)cyclopropane-1-carboxamide] | 1 to 10 | 1500 to 10000

Now from value to compound:

EC50 [1] [nM] | IC90 (plasma kallikrein) [nM] | Structure (SMILES)
< 1 | < 400 | CNCc1cc(C2CC2)cn2cc(CNc3ccnc(NC(=O)[C@H]4C[C@@H]4c4cccc(Cl)c4)c3)nc12 [Example 595, (1S,2S)-2-(3-chlorophenyl)-N-(4-(((6-cyclopropyl-8-((methylamino)methyl)imidazo[1,2-a]pyridin-2-yl)methyl)amino)pyridin-2-yl)cyclopropane-1-carboxamide]
< 1 | 10000 to 48000 | CC(C)(O)c1cc(C2CC2)cn2cc(CNc3ccnc(NC(=O)[C@H]4C[C@@H]4c4cc(Cl)ccc4C#N)c3)nc12 (racemic) [Example 131, rac-(1S*,2S*)-2-(5-chloro-2-cyanophenyl)-N-(4-(((6-cyclopropyl-8-(2-hydroxypropan-2-yl)imidazo[1,2-a]pyridin-2-yl)methyl)amino)pyridin-2-yl)cyclopropane-1-carboxamide]
< 1 | 400 to 1500 | O=C(Nc1cc(NCc2cn3cc(C4CC4)cc(N4CCNCC4=O)c3n2)ncn1)[C@H]1C[C@@H]1c1cccc(Cl)c1 [Example I-647, (1S,2S)-2-(3-chlorophenyl)-N-(6-(((6-cyclopropyl-8-(2-oxopiperazin-1-yl)imidazo[1,2-a]pyridin-2-yl)methyl)amino)pyrimidin-4-yl)cyclopropane-1-carboxamide]
< 1 | 1500 to 10000 | O=C(Nc1cc(NCc2cn3cc(C4CC4)cc(CCCO)c3n2)ccn1)[C@H]1C[C@@H]1c1cccc(Cl)c1 [Example 291, (1S,2S)-2-(3-chlorophenyl)-N-(4-(((6-cyclopropyl-8-(3-hydroxypropyl)imidazo[1,2-a]pyridin-2-yl)methyl)amino)pyridin-2-yl)cyclopropane-1-carboxamide]
< 1 | 400 to 1500 | O=C(Nc1cc(NCc2cn3cc(C4CC4)cc(N4CCN5CC(O)CC5C4)c3n2)ccn1)[C@H]1C[C@@H]1c1cccc(Cl)c1 (stereo partly drawn) [Example I-228, (1S,2S)-2-(3-chlorophenyl)-N-(4-(((6-cyclopropyl-8-(7-hydroxyhexahydropyrrolo[1,2-a]pyrazin-2(1H)-yl)imidazo[1,2-a]pyridin-2-yl)methyl)amino)pyridin-2-yl)cyclopropane-1-carboxamide]
< 1 | 1500 to 10000 | O=C(Nc1cc(NCc2cn3cc(C4CC4)cc(COCCO)c3n2)ccn1)[C@H]1C[C@@H]1c1cccc(Cl)c1 [Example 288, (1S,2S)-2-(3-chlorophenyl)-N-(4-(((6-cyclopropyl-8-((2-hydroxyethoxy)methyl)imidazo[1,2-a]pyridin-2-yl)methyl)amino)pyridin-2-yl)cyclopropane-1-carboxamide]
< 1 | 400 to 1500 | Cc1cc(NCc2cn3cc(C4CC4)cc(N4CCN(C)CC4)c3n2)cc(NC(=O)[C@H]2C[C@@H]2c2cccc(Cl)c2)n1 [Example 605, (1S,2S)-2-(3-chlorophenyl)-N-(4-(((6-cyclopropyl-8-(4-methylpiperazin-1-yl)imidazo[1,2-a]pyridin-2-yl)methyl)amino)-6-methylpyridin-2-yl)cyclopropane-1-carboxamide]
1 to 10 | 1500 to 10000 | CN1CCC(Oc2cc(C3CC3)cn3cc(CNc4cc(NC(=O)[C@H]5C[C@@H]5c5cccc(Cl)c5)ncn4)nc23)C1=O (stereo partly drawn) [Example I-147, (1S,2S)-2-(3-chlorophenyl)-N-(6-(((6-cyclopropyl-8-((1-methyl-2-oxopyrrolidin-3-yl)oxy)imidazo[1,2-a]pyridin-2-yl)methyl)amino)pyrimidin-4-yl)cyclopropane-1-carboxamide]
< 1 | 400 to 1500 | CN1CCC(F)(c2cc(C3CC3)cn3cc(CNc4cc(NC(=O)[C@H]5C[C@@H]5c5cccc(Cl)c5)ncn4)nc23)CC1 [Example 403, (1S,2S)-2-(3-chlorophenyl)-N-(6-(((6-cyclopropyl-8-(4-fluoro-1-methylpiperidin-4-yl)imidazo[1,2-a]pyridin-2-yl)methyl)amino)pyrimidin-4-yl)cyclopropane-1-carboxamide]
